The text below walks through data of patent publication US12528814B2, “Bifunctional degraders of interleukin-1 receptor-associated kinases and therapeutic use thereof” (NURIX THERAPEUTICS, INC., priority 2020, dated 2026).

Each structure is given as a SMILES string. Where only a bound is given, the exact number is not on record here.

The target of test [1] is T1, IRAK4 (Homo sapiens (Human), UniProt Q9NWZ3). In words: IRAK4 Degradation HiBiT Assay. To be noted: multiple runs, HiBiT-tagged Jurkat cells, 4 hrs; for Dmax: Jurkat, read-out: Cellular IRAK4 HiBiT: Dmax, Table 5; for DC50: read-out: Cellular IRAK4 HiBiT: DC50.
Target sequence in this assay (Q9NWZ3 whole entry): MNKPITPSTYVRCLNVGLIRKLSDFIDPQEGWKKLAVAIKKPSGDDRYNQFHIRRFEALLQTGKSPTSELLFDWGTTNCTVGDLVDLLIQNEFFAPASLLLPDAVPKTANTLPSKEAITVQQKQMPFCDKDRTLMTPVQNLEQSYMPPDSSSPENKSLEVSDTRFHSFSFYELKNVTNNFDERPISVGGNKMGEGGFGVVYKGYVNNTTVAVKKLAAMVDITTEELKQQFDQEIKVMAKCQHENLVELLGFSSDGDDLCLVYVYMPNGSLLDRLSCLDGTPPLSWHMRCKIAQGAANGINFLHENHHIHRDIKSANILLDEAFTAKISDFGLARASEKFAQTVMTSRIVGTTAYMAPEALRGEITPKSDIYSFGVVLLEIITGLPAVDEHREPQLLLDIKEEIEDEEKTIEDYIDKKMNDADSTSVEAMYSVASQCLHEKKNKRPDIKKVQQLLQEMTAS
Test [2] deals with T1, IRAK4. Briefly: IRAK4 Biochemical HTRF Kinase Assay. The conditions noted are these: Table 5; multiple runs; read-out: IRAK4 HTRF biochemical: IC50. The essentials: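 IC50 values derive from non-linear regression of sixteen concentrations in duplicate. Kinase reaction ran 90 min at ambient temperature after adding 5 μM STK-S1 substrate, 10 mM ATP and 10 mM MgCl2 (reaction-solution levels, pre-dilution to 10 μl); phospho-peptide detected by HTRF after 60 min.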
Target sequence in this assay (Q9NWZ3 whole entry, species assumed): as the sequence (Q9NWZ3 whole entry) above

Regarding `CNc1cc(-c2ccc3cc(C#N)cnn23)ncc1-c1nnc(C23CCC(NC(=O)CCOCCOCCOCCNc4cccc5c4C(=O)N(C4CCC(=O)NC4=O)C5=O)(CC2)CC3)s1` (stereo not drawn) [Example 110, N-(4-(5-(6-(3-cyanopyrrolo[1,2-b]pyridazin-7-yl)-4-(methylamino)pyridin-3-yl)-1,3,4-thiadiazol-2-yl)bicyclo[2.2.2]octan-1-yl)-3-(2-(2-(2-((2-(2,6-dioxopiperidin-3-yl)-1,3-dioxoisoindolin-4-yl)amino)ethoxy)ethoxy)ethoxy)propanamide], in test [1], the Dmax was 93%. In test [1] (Table 5), the half-maximal degradation concentration (DC50) turned out to be 34.2 nM. Also, in test [2], the IC50 is 0.7 nM.
Consider `CNc1cc(-c2ccc3cc(C#N)cnn23)ncc1-c1nnc(C23CCC(NC(=O)CCOCCNc4cccc5c4C(=O)N(C4CCC(=O)NC4=O)C5=O)(CC2)CC3)s1` (stereo not drawn) [Example 111, N-(4-(5-(6-(3-cyanopyrrolo[1,2-b]pyridazin-7-yl)-4-(methylamino)pyridin-3-yl)-1,3,4-thiadiazol-2-yl)bicyclo[2.2.2]octan-1-yl)-3-(2-((2-(2,6-dioxopiperidin-3-yl)-1,3-dioxoisoindolin-4-yl)amino)ethoxy)propenamide], for which the Dmax in test [1] is 59%. Besides, the DC50 in test [1] (Table 5) was 15.8 nM. Also, in test [2], the IC50 was determined as 1.1 nM.
In the same order, the values of `CNc1cc(-c2ccc3cc(C#N)cnn23)ncc1-c1nnc([C@H]2CC[C@@H](NC(=O)CCCCCCCNc3ccc4c(c3)C(=O)N(C3CCC(=O)NC3=O)C4=O)CC2)s1` (stereo partly drawn) [Example 112, N-((1s,4s)-4-(5-(6-(3-cyanopyrrolo[1,2-b]pyridazin-7-yl)-4-(methylamino)pyridin-3-yl)-1,3,4-thiadiazol-2-yl)cyclohexyl)-8-((2-(2,6-dioxopiperidin-3-yl)-1,3-dioxoisoindolin-5-yl)amino)octanamide] are 57%, 171 nM and 10.2 nM.
In the case of `CNc1cc(-c2ccc3cc(C#N)cnn23)ncc1-c1nnc([C@H]2CC[C@@H](NC(=O)[C@H]3C[C@@H](OCCNc4cccc5c4C(=O)N(C4CCC(=O)NC4=O)C5=O)C3)CC2)s1` (stereo partly drawn) [Example 113, (1s,3S)—N-((1s,4S)-4-(5-(6-(3-cyanopyrrolo[1,2-b]pyridazin-7-yl)-4-(methylamino)pyridin-3-yl)-1,3,4-thiadiazol-2-yl)cyclohexyl)-3-(2-((2-(2,6-dioxopiperidin-3-yl)-1,3-dioxoisoindolin-4-yl)amino)ethoxy)cyclobutane-1-carboxamide], the Dmax in test [1] worked out at 76%. In addition, the DC50 in test [1] (Table 5) was 32 nM. The IC50 in test [2] turned out to be 1.2 nM.
In the case of `CNc1cc(-c2ccc3cc(C#N)cnn23)ncc1-c1nnc([C@H]2CC[C@@H](NC(=O)CCCCCNc3ccc4c(c3)C(=O)N(C3CCC(=O)NC3=O)C4=O)CC2)s1` (stereo partly drawn) [Example 114, N-((1s,4s)-4-(5-(6-(3-cyanopyrrolo[1,2-b]pyridazin-7-yl)-4-(methylamino)pyridin-3-yl)-1,3,4-thiadiazol-2-yl)cyclohexyl)-6-((2-(2,6-dioxopiperidin-3-yl)-1,3-dioxoisoindolin-5-yl)amino)hexanamide], the Dmax in test [1] was 82%. Also, the DC50 in test [1] (Table 5) turned out to be 72.6 nM. Also, the IC50 in test [2] stood at 2.9 nM.
For `CNc1cc(-c2ccc3cc(C#N)cnn23)ncc1-c1nnc([C@H]2CC[C@@H](NC(=O)CCOCCNc3ccc4c(c3)C(=O)N(C3CCC(=O)NC3=O)C4=O)CC2)s1` (stereo partly drawn) [Example 115, N-((1s,4s)-4-(5-(6-(3-cyanopyrrolo[1,2-b]pyridazin-7-yl)-4-(methylamino)pyridin-3-yl)-1,3,4-thiadiazol-2-yl)cyclohexyl)-3-(2-((2-(2,6-dioxopiperidin-3-yl)-1,3-dioxoisoindolin-5-yl)amino)ethoxy)propanamide], in test [1], the Dmax turned out to be 78%. Besides, the 50% degradation concentration (DC50) in test [1] (Table 5) was found to be 44.7 nM. In addition, the IC50 in test [2] was found to be 2.2 nM.
As to `CNc1cc(-c2ccc3cc(C#N)cnn23)ncc1-c1nnc([C@H]2CC[C@@H](NC(=O)CCOCCNc3cccc4c3C(=O)N(C3CCC(=O)NC3=O)C4=O)CC2)s1` (stereo partly drawn) [Example 116, N-((1s,4s)-4-(5-(6-(3-cyanopyrrolo[1,2-b]pyridazin-7-yl)-4-(methylamino)pyridin-3-yl)-1,3,4-thiadiazol-2-yl)cyclohexyl)-3-(2-((2-(2,6-dioxopiperidin-3-yl)-1,3-dioxoisoindolin-4-yl)amino)ethoxy)propanamide], the Dmax in test [1] was found to be 60%. In addition, the DC50 in test [1] (Table 5) worked out at 46.3 nM. Moreover, the IC50 in test [2] came out at 2.2 nM.
For `CNc1cc(-c2ccc3cc(C#N)cnn23)ncc1-c1nnc([C@H]2CC[C@@H](NC(=O)CCOCCOCCOCCNc3cccc4c3C(=O)N(C3CCC(=O)NC3=O)C4=O)CC2)s1` (stereo partly drawn) [Example 117, N-((1s,4s)-4-(5-(6-(3-cyanopyrrolo[1,2-b]pyridazin-7-yl)-4-(methylamino)pyridin-3-yl)-1,3,4-thiadiazol-2-yl)cyclohexyl)-3-(2-(2-(2-((2-(2,6-dioxopiperidin-3-yl)-1,3-dioxoisoindolin-4-yl)amino)ethoxy)ethoxy)ethoxy)propanamide], in test [1], the Dmax worked out at 20%. Further, the DC50 in test [1] (Table 5) stood at 27.1 nM. The IC50 in test [2] worked out at 1.2 nM.
`CNc1cc(-c2ccc3cc(C#N)cnn23)ncc1-c1nnc([C@H]2CC[C@H](NC(=O)C[C@H](NC(=O)[C@@H]3C[C@@H](O)CN3C(=O)[C@@H](NC(=O)C3(F)CC3)C(C)(C)C)c3ccc(-c4scnc4C)cc3)CC2)s1` [Example 118, (2S,4R)—N—((S)-3-(((1r,4S)-4-(5-(6-(3-cyanopyrrolo[1,2-b]pyridazin-7-yl)-4-(methylamino)pyridin-3-yl)-1,3,4-thiadiazol-2-yl)cyclohexyl)amino)-1-(4-(4-methylthiazol-5-yl)phenyl)-3-oxopropyl)-1-((S)-2-(1-fluorocyclopropane-1-carboxamido)-3,3-dimethylbutanoyl)-4-hydroxypyrrolidine-2-carboxamide]: the Dmax in test [1] was determined as 118%. In test [1] (Table 5), the DC50 stood at 35.2 nM. In addition, in test [2], the IC50 amounted to 1.4 nM.
`CNc1cc(-c2ccc3cc(C#N)cnn23)ncc1-c1nnc([C@H]2CC[C@H](NC(=O)CCCOc3cc(-c4scnc4C)ccc3CNC(=O)[C@@H]3C[C@@H](O)CN3C(=O)[C@@H](NC(=O)C3(F)CC3)C(C)(C)C)CC2)s1` [Example 119, (2S,4R)—N-(2-(4-(((1r,4S)-4-(5-(6-(3-cyanopyrrolo[1,2-b]pyridazin-7-yl)-4-(methylamino)pyridin-3-yl)-1,3,4-thiadiazol-2-yl)cyclohexyl)amino)-4-oxobutoxy)-4-(4-methylthiazol-5-yl)benzyl)-1-((S)-2-(1-fluorocyclopropane-1-carboxamido)-3,3-dimethylbutanoyl)-4-hydroxypyrrolidine-2-carboxamide]: the Dmax in test [1] turned out to be 117%. Further, in test [1] (Table 5), the DC50 turned out to be 116 nM. Further, in test [2], the 50% inhibitory concentration (IC50) was 2.2 nM.
In the case of `CNc1cc(-c2ccc3cc(C#N)cnn23)ncc1-c1nnc([C@H]2CC[C@@H](NC(=O)CCCCCNc3cccc4c3C(=O)N(C3CCC(=O)NC3=O)C4=O)CC2)s1` (stereo partly drawn) [Example 120, N-((1s,4s)-4-(5-(6-(3-cyanopyrrolo[1,2-b]pyridazin-7-yl)-4-(methylamino)pyridin-3-yl)-1,3,4-thiadiazol-2-yl)cyclohexyl)-6-((2-(2,6-dioxopiperidin-3-yl)-1,3-dioxoisoindolin-4-yl)amino)hexanamide], in test [1] (Table 5), the “Cellular IRAK4 HiBiT: Dmax” value is given as 32% and the DC50 was 33.4 nM. In addition, the IC50 in test [2] worked out at 1.1 nM.
For `CNc1cc(-c2ccc3cc(C#N)cnn23)ncc1-c1nnc([C@H]2CC[C@@H](NC(=O)CCC(=O)N[C@H](C(=O)N3C[C@H](O)C[C@H]3C(=O)N[C@@H](C)c3ccc(-c4scnc4C)cc3)C(C)(C)C)CC2)s1` [Example 121, N1-((1s,4R)-4-(5-(6-(3-cyanopyrrolo[1,2-b]pyridazin-7-yl)-4-(methylamino)pyridin-3-yl)-1,3,4-thiadiazol-2-yl)cyclohexyl)-N4—((S)-1-((2S,4R)-4-hydroxy-2-(((S)-1-(4-(4-methylthiazol-5-yl)phenyl)ethyl)carbamoyl)pyrrolidin-1-yl)-3,3-dimethyl-1-oxobutan-2-yl)succinamide], in test [1], the Dmax came to 95%. Further, the DC50 in test [1] (Table 5) came out at 1080 nM. In addition, the IC50 in test [2] worked out at 1.2 nM.
Consider `CNc1cc(-c2ccc3cc(C#N)cnn23)ncc1-c1nnc(N2CCCC3(CN(Cc4ccc5c(c4)C(=O)N(C4CCC(=O)NC4=O)C5=O)C3)C2)s1` (stereo not drawn) [Example 122, 7-(5-(5-(2-((2-(2,6-dioxopiperidin-3-yl)-1,3-dioxoisoindolin-5-yl)methyl)-2,6-diazaspiro[3.5]nonan-6-yl)-1,3,4-thiadiazol-2-yl)-4-(methylamino)pyridin-2-yl)pyrrolo[1,2-b]pyridazine-3-carbonitrile], for which, in test [1] (Table 5), the DC50 is over 9980 nM. For the same compound, the IC50 in test [2] was 1.1 nM.
As to `CNc1cc(-c2ccc3cc(C#N)cnn23)ncc1-c1nnc(N2CCCC3(CN(Cc4ccc5c(c4)CN(C4CCC(=O)NC4=O)C5=O)C3)C2)s1` (stereo not drawn) [Example 123, 7-(5-(5-(2-((2-(2,6-dioxopiperidin-3-yl)-1-oxoisoindolin-5-yl)methyl)-2,6-diazaspiro[3.5]nonan-6-yl)-1,3,4-thiadiazol-2-yl)-4-(methylamino)pyridin-2-yl)pyrrolo[1,2-b]pyridazine-3-carbonitrile], the DC50 in test [1] (Table 5) was over 9980 nM. Further, the IC50 in test [2] is 2.1 nM.
Take `CNc1cc(-c2ccc3cc(C#N)cnn23)ncc1-c1nnc(N2CCCC3(CN(C(=O)c4ccc5c(c4)C(=O)N(C4CCC(=O)NC4=O)C5=O)C3)C2)s1` (stereo not drawn) [Example 124, 7-(5-(5-(2-(2-(2,6-dioxopiperidin-3-yl)-1,3-dioxoisoindoline-5-carbonyl)-2,6-diazaspiro[3.5]nonan-6-yl)-1,3,4-thiadiazol-2-yl)-4-(methylamino)pyridin-2-yl)pyrrolo[1,2-b]pyridazine-3-carbonitrile]: in test [1] (Table 5), the 50% degradation concentration (DC50) was over 9980 nM. For the same compound, the IC50 in test [2] turned out to be 1.9 nM.
